{"source": "patent US20200306266A1", "about": "“SOLID DISPERSION OF DUTASTERIDE, METHOD FOR PRODUCING SAME, AND PHARMACEUTICAL COMPOSITION COMPRISING SAME” (KOREA PRIME PHARM CO., LTD., priority 2017, published 2020)", "experiment": "Storage stability, related substance test", "type": "physicochemical", "settings": "Raw material", "method": "Evaluation of Storage Stability of the Preparations\nThe storage stabilities of the preparations were evaluated according to the test criteria for related substances."}
{"smiles": "C[C@]12C=CC(=O)N[C@@H]1CC[C@@H]1[C@@H]2CC[C@]2(C)[C@@H](C(=O)Nc3cc(C(F)(F)F)ccc3C(F)(F)F)CC[C@@H]12", "note": "[Dutasteride, 17β-N-[2,5-bis(trifluoromethyl)]phenylcarbamoyl-4-aza-5α-androst-1-en-3-one]", "values": [{"measurement": "Judgement", "result": "Suitable"}]}
